In brackets after ≈: the same amount, converted by molar mass. Where two headings read alike, the source gives them in different places. Peptide text beside a SMILES is read from it. * marks the point of attachment. Palmitoyl = CCCCCCCCCCCCCCCC(=O)*
What was measured:
S. aureus ATCC 6538 = details: CFU assay, 10 mM NaP
P. aeruginosa ATCC 10145 = details: CFU assay, 10 mM NaP, pH 5.5, 0.25% glucose
[1] = system: Streptococcus pneumoniae ATCC 33400; experiment: CFU assay of antimicrobial activity; format: cell-based; details: 10 mM NaP
Procedure: (§1) All purified peptides and recombinant proteins were applied using a colony forming unit (CFU) assay in different media. Bacteria were grown to early log-phase in BHI, washed either with 10 mM Na-P, pH 7.4/1% TSB or pH 5.5/1% TSB, or pH 5.5 without TSB or BHI, and adjusted to a concentration of 10^4–10^5 colony forming units (CFU)/ml. For cell number control, 100 µl aliquots were diluted 1:10, 1:100 and 1:1000 and plated in duplicates on BHI agar plates. To 100 µl aliquots of the bacteria, suspended in the respective medium (10 mM Na-P buffer pH 7,0–7,4/ 1% (w/v) TSB; […]; 10 mM Na-P buffer pH 7,0–7,4/ 1% (w/v) TSB pH 7,0–7,4/ 0,25% (w/v) glucose; 10 mM Na-P buffer pH 5,5/ 0,25% (w/v) glucose, respectively), 10 µl of a solution of the peptide or protein (two-fold dilutions, from 300 µg/ml or 150 µg/ml down to 19 ng/ml), dissolved in 0.01% (v/v) acetic acid, were added.
(§2) Then bacteria were incubated for 2 h at ambient temperature, if not otherwise stated. 10 µl of 0.01% (v/v) acetic acid, added to 100 µl aliquots of the bacteria in the respective medium, served as negative control. From each test, 1:10 and 1:100 dilutions were generated and plated as duplicates of 100 µl aliquots on BHI agar plates. After 16 h incubation at 37 °C, CFU were counted using a colony counter (Bio Kobe, Japan) and expressed as mean of the duplicate estimation to achieve a complete dose-response curve. All experiments were performed at serial dilutions in a concentration range of 100 µg/mL −25 ng/mL for recombinant HRNR fragments and 300 or 150 µg/mL–19 ng/mL for synthetic peptides.

[2] = system: Streptococcus pyogenes ATCC 12344; experiment: CFU assay of antimicrobial activity; format: cell-based; details: 10 mM NaP
Procedure: as §1, §2

E. coli ATCC 11775 = experiment: CFU assay of antimicrobial activity; format: cell-based, Escherichia coli; details: 10 mM NaP
Procedure: (§3) All purified peptides and recombinant proteins were applied using a colony forming unit (CFU) assay in different media. Bacteria were grown to early log-phase in BHI, washed either with 10 mM Na-P, pH 7.4/1% TSB or pH 5.5/1% TSB, or pH 5.5 without TSB or BHI, and adjusted to a concentration of 10^4–10^5 colony forming units (CFU)/ml. For cell number control, 100 µl aliquots were diluted 1:10, 1:100 and 1:1000 and plated in duplicates on BHI agar plates. To 100 µl aliquots of the bacteria, suspended in the respective medium (10 mM Na-P buffer pH 7,0–7,4/ 1% (w/v) TSB; 10 mM Na-P buffer pH 5,5/ 1% (w/v) TSB; 10 mM Na-P buffer pH 7,0–7,4/ 1% (w/v) TSB pH 7,0–7,4/ 0,25% (w/v) glucose; 10 mM Na-P buffer pH 5,5/ 0,25% (w/v) glucose, respectively), 10 µl of a solution of the peptide or protein (two-fold dilutions, from 300 µg/ml or 150 µg/ml down to 19 ng/ml), dissolved in 0.01% (v/v) acetic acid, were added.
as §2

[3] = system: Klebsiella pneumonia ATCC 700603; details: MDR strain; CLSI, Mueller–Hinton broth, 5 × 10^5 CFU/mL, 18 h 37 °C, by CO-ADD
[4] = system: Staphylococcus aureus ATCC 43300; details: MRSA; CLSI, Mueller–Hinton broth, 5 × 10^5 CFU/mL, 18 h 37 °C, by CO-ADD
[5] = system: Cryptococcus neoformans ATCC 208821; experiment: CO-ADD MIC, antifungal assay (CLSI); format: cell-based; details: Yeast Nitrogen Base broth, 24 h 35 °C, by CO-ADD
Procedure: (§4) Fungi strains were cultured for 3 days on Yeast Extract-Peptone Dextrose (YPD) agar at 30 °C. A yeast suspension of 1 × 10^6 to 5 × 10^6 cells/mL (as determined by OD530) was prepared from five colonies. These stock suspensions were diluted with Yeast Nitrogen Base (YNB) broth to a final concentration of 2.5 × 10^3 CFU/mL. […] Plates were covered and incubated at 35 °C for 24 h without shaking.

[6] = system: Candida albicans ATCC 90028; experiment: CO-ADD MIC, antifungal assay (CLSI); format: cell-based; details: Yeast Nitrogen Base broth, 24 h 35 °C, by CO-ADD
Procedure: as §4

[7] = system: Salmonella typhimurium ATCC 13311; experiment: CFU assay of antimicrobial activity; format: cell-based; details: 10 mM NaP
Procedure: as §3, §2

[8] = system: Staphylococcus epidermidis ATCC 14990; experiment: CFU assay of antimicrobial activity; format: cell-based; details: 10 mM NaP
Procedure: as §3, §2

[9] = system: Pseudomonas aeruginosa ATCC 27853; experiment: CO-ADD MIC, broth microdilution (CLSI); format: cell-based; details: Mueller–Hinton broth, 5 × 10^5 CFU/mL, 18 h 37 °C, by CO-ADD
Excerpt: (§5) They were defined as the lowest peptide
(§6) Further details of the screening

[10] = system: Acinetobacter baumannii ATCC 19606; experiment: CO-ADD MIC, broth microdilution (CLSI); format: cell-based; details: Mueller–Hinton broth, 5 × 10^5 CFU/mL, 18 h 37 °C, by CO-ADD
Excerpt: as §5, §6

[11] = system: Burkholderia cepacia ATCC 25416; details: CFU assay, 10 mM NaP
E. coli ATCC 25922 = experiment: CO-ADD MIC, broth microdilution (CLSI); format: cell-based, Escherichia coli; details: Mueller–Hinton broth, 5 × 10^5 CFU/mL, 18 h 37 °C, by CO-ADD
Excerpt: as §5, §6

[12] = system: Klebsiella pneumoniae ATCC 13883; details: CFU assay, 10 mM NaP
[13] = system: Clostridium perfringens ATCC 13124; details: CFU assay, 10 mM NaP
[14] = system: Prevotella oralis ATCC 33321; experiment: CFU assay of antimicrobial activity; format: cell-based; details: 10 mM NaP
Procedure: as §3, with “[…],” for “10 mM Na-P buffer pH 5,5/ 0,25% (w/v) glucose,”
as §2

[15] = system: Propionibacterium acnes ATCC 6919; experiment: CFU assay of antimicrobial activity; format: cell-based; details: 10 mM NaP
Procedure: as §3, §2

Molecule `CCCCCCCCCCCCCCCC(=O)N[C@@H](CO)C(=O)N[C@@H](Cc1c[nH]cn1)C(=O)N[C@@H](Cc1c[nH]cn1)C(=O)N[C@@H](CCCNC(=N)N)C(=O)N[C@@H](CS)C(=O)N[C@@H](CS)C(=O)N[C@@H](CCCNC(=N)N)C(=O)N[C@@H](CO)C(=O)N[C@@H](Cc1c[nH]cn1)C(=O)N[C@@H](CCCNC(=N)N)C(=O)N[C@@H](CS)C(=O)N[C@@H](CCCNC(=N)N)C(=O)N[C@@H](CCCNC(=N)N)C(=O)O` [Pal-LCE-3B56–68] (Palmitoyl-SHHRCCRSHRCRR-OH) has an LD90 (S. aureus ATCC 6538; pH 5.5, 0.25% glucose) of less than 0.019 µg/mL, an LD90 (P. aeruginosa ATCC 10145) of 0.075 µg/mL and an LD90 ([1]; pH 7.3, 0.25% glucose) of 0.59 µg/mL. The LD90 ([2]; pH 6.0, 0.25% glucose) was 0.15 µg/mL, the LD90 ([2]; pH 7.3, 0.25% glucose) was 0.15 µg/mL and the LD90 (E. coli ATCC 11775; pH 5.5, 0.25% glucose) was 0.3 µg/mL. For the same molecule, the LD90 (E. coli ATCC 11775; pH 7.3, 0.25% glucose) was 0.59 µg/mL, the “Minimal inhibitory concentration (MIC)” value [3] was greater than 32 µg/mL and the “Minimal inhibitory concentration (MIC)” value [4] was 16 µg/mL (≈ 8.28 µM). The “Minimal inhibitory concentration (MIC)” value [5] was 0.25 µg/mL (≈ 0.129 µM), the “Minimal inhibitory concentration (MIC)” value [6] was 1 µg/mL (≈ 0.517 µM) and the LD90 ([7]; pH 5.5, 0.25% glucose) was 0.038 µg/mL. For the same molecule, the LD90 ([7]; pH 7.3, 0.25% glucose) was 1.18 µg/mL, the LD90 ([8]; pH 5.5, 0.25% glucose) was 0.3 µg/mL and the “Minimal inhibitory concentration (MIC)” value [9] was greater than 32 µg/mL. For the same molecule, the “Minimal inhibitory concentration (MIC)” value [10] was greater than 32 µg/mL, the LD90 ([11]; pH 5.5, 0.25% glucose) was greater than 300 µg/mL and the LD90 ([11]; pH 7.3, 0.25% glucose) was 4.7 µg/mL. The “Minimal inhibitory concentration (MIC)” value (E. coli ATCC 25922) was greater than 32 µg/mL, the LD90 ([12]; pH 5.5, 0.25% glucose) was 0.15 µg/mL and the LD90 ([12]; pH 7.3, 0.25% glucose) was 2.35 µg/mL.
`CCCCCCCCCCCCCCCC(=O)NCC(=O)N[C@@H](CCCNC(=N)N)C(=O)N[C@@H](Cc1c[nH]cn1)C(=O)NCC(=O)N[C@@H](CO)C(=O)NCC(=O)N[C@@H](CC(C)C)C(=O)NCC(=O)N[C@@H](Cc1c[nH]cn1)C(=O)N[C@@H](CO)C(=O)N[C@@H](CO)C(=O)N[C@@H](CO)C(=O)N[C@@H](Cc1c[nH]cn1)C(=O)NCC(=O)N[C@@H](CCC(N)=O)C(=O)N[C@@H](Cc1c[nH]cn1)C(=O)NCC(=O)N[C@@H](CO)C(=O)NCC(=O)N[C@@H](CO)C(=O)NCC(=O)N[C@@H](CCCNC(=N)N)C(=O)O` [Pal-HR 1-18] (Palmitoyl-GRHGSGLGHSSSHGQHGSGSGR-OH) was tested, and the LD90 (S. aureus ATCC 6538; pH 5.5, 0.25% glucose) was 1.18 µg/mL, the LD90 (S. aureus ATCC 6538; pH 7.3, 1% TSB) was greater than 300 µg/mL and the LD90 ([13]; pH 5.5, 0.25% glucose) was 37.5 µg/mL. The LD90 ([13]; pH 7.3, 0.25% glucose) was 4.7 µg/mL, the LD90 ([13]; pH 7.3, 1% TSB) was 18.75 µg/mL and the LD90 ([1]; pH 7.3, 0.25% glucose) was 2.35 µg/mL. The LD90 ([1]; pH 7.3, 1% TSB) was 9.38 µg/mL, the LD90 ([2]; pH 7.3, 0.25% glucose) was 0.15 µg/mL and the LD90 ([2]; pH 7.3, 1% TSB) was 9.38 µg/mL. For the same molecule, the “Minimal inhibitory concentration (MIC)” value [3] was greater than 32 µg/mL, the LD90 ([14]; pH 6.5, 0.25% glucose) was 37.5 µg/mL and the LD90 ([14]; pH 7.3, 1% TSB) was 18.75 µg/mL. For the same molecule, the “Minimal inhibitory concentration (MIC)” value [4] was greater than 32 µg/mL, the “Minimal inhibitory concentration (MIC)” value [5] was greater than 32 µg/mL and the “Minimal inhibitory concentration (MIC)” value [6] was greater than 32 µg/mL. For the same molecule, the LD90 ([15]; pH 5.5, 0.25% glucose) was 0.3 µg/mL, the LD90 ([15]; pH 7.3, 0.25% glucose) was 0.59 µg/mL and the LD90 ([15]; pH 7.3, 1% TSB) was 1.18 µg/mL. For the same molecule, the LD90 ([8]; pH 7.3, 1% TSB) was greater than 300 µg/mL, the “Minimal inhibitory concentration (MIC)” value [9] was greater than 32 µg/mL and the “Minimal inhibitory concentration (MIC)” value [10] was 32 µg/mL (≈ 13.7 µM). For the same molecule, the LD90 ([11]; pH 7.3, 0.25% glucose) was 75 µg/mL, the “Minimal inhibitory concentration (MIC)” value (E. coli ATCC 25922) was greater than 32 µg/mL and the LD90 ([12]; pH 5.5, 0.25% glucose) was 0.3 µg/mL.

Source: article PMC6399351, “Cationic Intrinsically Disordered Antimicrobial Peptides (CIDAMPs) Represent a New Paradigm of Innate Defense with a Potential for Novel Anti-Infectives” (Scientific Reports, 2019)
